Assay results as given in US20100184727A1, “TREATMENT OF EXCESS SEBUM PRODUCTION” (SUMMIT (CAMBRIDGE) LIMITED, priority 2006, published 2010).
≈ marks a conversion by molar mass, not a printed value. Where a name gives a salt, the structure may show the parent alone. Read-outs that look alike come from different tables or passages of the source.

How the values were obtained:
[1] = system: Propionibacterium acnes NCTC 737; assay: MIC/MBC 96-well plate broth micro-dilution assay; assay type: cell-based; details: for MBC / MIC: Cutibacterium acnes
Procedure: The anaerobic cutaneous propionibacteria e.g. Propionibacterium acnes are implicated in the pathogenesis of acne vulgaris. The test organism Propionibacterium acnes is classified as a ‘Type’ strain for the species. […] MIC determinations were carried out using a standard 96-well plate broth micro-dilution assay. Wilkins-Chalgren anaerobe broth at pH 6 and pH 7.1±0.2 was used for P. acnes. […] The test range for the control compounds varied depending on known activity levels. […] Benzoyl peroxide and erythromycin were used as control compounds in P. acnes assays. Benzoyl peroxide and erythromycin were both dissolved in ethanol.

sebum production = assay: Sebum production study in healthy male volunteers (Sebumeter); assay type: in vivo; details: for Sebum Production Maximum % Reduction LS Means: compared to placebo, healthy male volunteers
Procedure: The study examined the effects of oxybutynin on sebum production in 9 healthy male volunteers. This was double-blind, randomised, placebo-controlled dose study
The subjects were assessed on each dosing occasion for sebum production pre-dose and 1 h, 2.5 h, 4 h and 6 h post-dose. Skin sebum excretion rates were determined using a Sebumeter® (Optical measurement of sebum excretion using opalescent film imprint, 2006, Handbook of non-invasive methods and the skin, Second Edition). Vital signs were recorded at specified times during each study period and adverse events were reported throughout.
For each subject, the maximum % reduction in sebum production compared to placebo was calculated for each dose level. Using this information, a mixed effects regression analysis of the % reduction in sebum versus dose with subject as a random effect was performed.

[2] = NCTC737, pH 6, Wilkins-Chalgren agar, mean of minimum 4 replicates, read-out: MBC
[3] = NCTC737, pH 6, Wilkins-Chalgren anaerobe broth, mean of minimum 4 replicates, read-out: MIC
[4] = NCTC737, pH 7.1 ± 0.2, Wilkins-Chalgren agar, mean of minimum 4 replicates, read-out: MBC
[5] = NCTC737, pH 7.1 ± 0.2, Wilkins-Chalgren anaerobe broth, mean of minimum 4 replicates, read-out: MIC

SMILES | MBC [1, 2] | MIC [1, 3] | MBC [1, 4] | MIC [1, 5] | Antimicrobial activity against P. acnes (in words) ([1]; pH 6) | Antimicrobial activity against P. acnes (in words) ([1]; pH 7.1±0.2) | also measured
O=C(OOC(=O)c1ccccc1)c1ccccc1 [Benzoyl peroxide] |  |  |  |  |  |  | MBC ([1]; NCTC737, pH 6): 62.5 µg/mL (≈ 258 µM); MIC ([1]; NCTC737, pH 6): 31.2 µg/mL (≈ 129 µM); MBC ([1]; NCTC737, pH 7.1): 62.5 µg/mL (≈ 258 µM); MIC ([1]; NCTC737, pH 7.1): 31.2 µg/mL (≈ 129 µM)
NC(=O)C(c1ccccc1)(c1ccccc1)[C@@H]1CCN(CCc2ccc3c(c2)CCO3)C1 [Darifenacin hydrobromide, darifenacin hydrobromide] | 1000 µg/mL | 500 µg/mL | 500 µg/mL | 500 µg/mL | some moderate antimicrobial activity | some moderate antimicrobial activity | 
CC[C@H]1OC(=O)[C@H](C)[C@@H](O[C@H]2C[C@@](C)(OC)[C@@H](O)[C@H](C)O2)[C@H](C)[C@@H](O[C@@H]2O[C@H](C)C[C@H](N(C)C)[C@H]2O)[C@](C)(O)C[C@@H](C)C(=O)[C@H](C)[C@@H](O)[C@]1(C)O [Erythromycin] | > 2.5 µg/mL | 0.63 µg/mL (≈ 0.858 µM) | > 2.5 µg/mL | 0.313 µg/mL (≈ 0.426 µM) |  |  | 
CCN(CC)CC#CCOC(=O)C(O)(c1ccccc1)C1CCCCC1 (stereo not shown) [Oxybutynin chloride, oxybutynin chloride] | 1000 µg/mL | 500 µg/mL | 500 µg/mL | 500 µg/mL | some moderate antimicrobial activity | some moderate antimicrobial activity | 
CCN(CC)CC#CCOC(=O)C(O)(c1ccccc1)C1CCCCC1 (stereo not shown) [oxybutynin] |  |  |  |  |  |  | Sebum Production Maximum % Reduction LS Means (sebum production; dose 1 mg): 21.59%; Sebum Production Maximum % Reduction LS Means (sebum production; dose 2 mg): −16.94%; Sebum Production Maximum % Reduction LS Means (sebum production; dose 5 mg): −34.74%; Sebum Production Maximum % Reduction LS Means (sebum production; dose 10 mg): −75.52%; Effect on sebum production (in words) (sebum production; following administration of 2 mg, 5 mg and 10 mg): decreased with dose
